We go through 10 compounds from patent publication US20090233907A1, “Pyridopyrimidine Derivatives and Their Use as PDE4 Inhibitors” (ASTRAZENECA AB, priority 2006, published 2009).

Assay [1] deals with T1, recombinant Human Phosphodiesterase B2 (PDE4B2) (Homo sapiens, UniProt Q07343). Nature of the assay: Human Phosphodiesterase B2 Radiometric Assay. Conditions: radiometric SPA assay, [3H]cyclic AMP 8 nM, read-out: PDE4B2 pIC50 (converted). The assay is classed as biochemical. How it is done: Human Phosphodiesterase B2 Radiometric Assay
T1 sequence (Q07343 1-564 isoform Q07343-2): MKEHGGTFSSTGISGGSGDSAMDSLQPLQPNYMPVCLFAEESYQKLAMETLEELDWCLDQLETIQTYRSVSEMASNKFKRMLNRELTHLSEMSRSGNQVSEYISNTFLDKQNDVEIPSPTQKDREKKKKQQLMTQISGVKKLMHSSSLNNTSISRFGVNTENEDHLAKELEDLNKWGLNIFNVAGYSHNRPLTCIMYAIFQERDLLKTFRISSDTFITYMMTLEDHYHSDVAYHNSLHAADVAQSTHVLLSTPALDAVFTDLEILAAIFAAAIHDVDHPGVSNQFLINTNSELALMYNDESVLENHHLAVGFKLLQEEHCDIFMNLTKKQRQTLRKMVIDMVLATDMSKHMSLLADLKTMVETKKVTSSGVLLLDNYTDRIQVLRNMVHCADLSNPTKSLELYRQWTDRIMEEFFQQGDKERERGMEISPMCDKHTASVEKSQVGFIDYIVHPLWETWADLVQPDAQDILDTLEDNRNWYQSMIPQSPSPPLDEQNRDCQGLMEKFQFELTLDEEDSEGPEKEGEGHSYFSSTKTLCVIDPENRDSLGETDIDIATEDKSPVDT
The assay uses recombinant Human Phosphodiesterase B2 (PDE4B2) produced in house (PrAZL0163), stored at −20° C. This assay is based on the observation that 5′AMP, the product of the reaction catalysed by PDE4, binds preferentially to yttrium silicate SPA beads (Amersham Biosciences, UK) compared to the substrate, cAMP. Compounds at the appropriate concentration were preincubated at 30 C for 30 min with an assay buffer containing 50 mM HEPES (pH 7.5), 8.3 mM MgCl2, 1.7 mM EGTA, 0.01% (w/v) Brij®35 and 0.1 μg/mL recombinant PDE4B2. The reaction was started by the addition of [3H]cyclic AMP to give a final concentration of 8 nM, and was stopped 20 minutes after the addition of the substrate by the addition of yttrium silicate SPA beads containing 18 mM Zn SO4. Bound [3H]cyclic AMP was measured using a Topcount NXT (Packard Bioscience, UK). pIC50 values (presented in Table 5) were determined using Xlfit3 curve fitting, using model 205.

The target of assay [2] is T1, recombinant Human Phosphodiesterase B2 (PDE4B2). Nature of the assay: Human Phosphodiesterase B2 Alpha Screen Assay. The assay is classed as biochemical. Particulars: Alpha Screen cAMP assay. How it is done:
Human Phosphodiesterase B2 Alpha Screen Assay
The assay uses recombinant Human Phosphodiesterase B2 (PDE4B2) produced in house (PrAZL0133), stored at −20° C. The substrate uses cAMP, part of the Alpha Screen cAMP kit (Perkin Elmer, Cat# 6760625M), stored at 4° C. The Alpha Screen kit also includes biotinylated cAMP, acceptor and donor beads.
The assay additions were as follows: Test compounds and controls were added to white 384-well flat-bottom plates (Greiner, Cat# 781075), 0.2 μl in 100% DMSO, followed by 10 μl PDE4B2 in reaction buffer. The reaction buffer constitution was: 50 mM Tris (pH 7.5), 8.3 mM MgCl2, 1.7 mM EGTA and 0.01% (w/v) Brij®35. The enzyme and the compounds were incubated at room temperature for 15 minutes. Then 10 μl cAMP in reaction buffer was added. The assay was stopped after 60 minutes incubation at room temperature by adding 10 μl acceptor beads in detection buffer with 40 mM EDTA. The detection buffer constitution was: 5 mM Tris (pH 7.5), 0.1% (w/v) BSA and 0.1% (v/v) Tween 20. This addition followed by an addition of 10 μl donor beads in detection buffer, with biotinylated cAMP. The plates were then incubated, dark at room temperature, for 5 hours followed by measurement on a Fusion™-α analyser. IC50 values (presented in Table 4) were determined using Xlfit curve fitting using model 205.

In the case of `O=C(N[C@H]1CC[C@@H](n2c(=O)c3cc(F)cnc3n(C3CCSCC3)c2=O)CC1)c1cn2c(n1)CCCC2` [Example 33, N-{cis-4-[6-fluoro-2,4-dioxo-1-(tetrahydro-2H-thiopyran-4-yl)-1,4-dihydropyrido[2,3-d]pyrimidin-3(2H)-yl]cyclohexyl}-5,6,7,8-tetrahydroimidazo[1,2-a]pyridine-2-carboxamide], the IC50 in assay [1] is 0.398 nM.

Consider `O=C(N[C@H]1CC[C@@H](n2c(=O)c3cc(F)cnc3n(C3CCSCC3)c2=O)CC1)c1cn2cc(F)ccc2n1` [Example 41, 6-fluoro-N-{cis-4-[6-fluoro-2,4-dioxo-1-(tetrahydro-2H-thiopyran-4-yl)-1,4-dihydropyrido[2,3-d]pyrimidin-3(2H)-yl]cyclohexyl}imidazo[1,2-a]pyridine-2-carboxamide], for which the IC50 in assay [1] was 0.126 nM.

Turning to `O=C(N[C@H]1CC[C@@H](n2c(=O)c3cc(F)cnc3n(C3CCSCC3)c2=O)CC1)C(O)c1ccc(O)cc1` (stereo partly drawn) [Example 64b, N-{cis-4-[6-fluoro-2,4-dioxo-1-(tetrahydro-2H-thiopyran-4-yl)-1,4-dihydropyrido[2,3-d]pyrimidin-3(2H)-yl]cyclohexyl}-2-hydroxy-2-(4-hydroxyphenyl)acetamide], the IC50 in assay [1] was 0.316 nM.

Regarding `O=C(N[C@H]1CC[C@@H](n2c(=O)c3cc(F)cnc3n(C3CCSCC3)c2=O)CC1)c1n[nH]c2ccccc12` [Example 5, N-{cis-4-[6-fluoro-2,4-dioxo-1-(tetrahydro-2H-thiopyran-4-yl)-1,4-dihydropyrido[2,3-d]pyrimidin-3(2H)-yl]cyclohexyl}-1H-indazole-3-carboxamide], the IC50 in assay [2] is 1.35 nM.

Take `O=C(Cc1cccc(O)c1)N[C@H]1CC[C@@H](n2c(=O)c3cc(F)cnc3n(C3CCSCC3)c2=O)CC1` [Example 8, N-{cis-4-[6-fluoro-2,4-dioxo-1-(tetrahydro-2H-thiopyran-4-yl)-1,4-dihydropyrido[2,3-d]pyrimidin-3(2H)-yl]cyclohexyl}-2-(3-hydroxyphenyl)acetamide]: the IC50 in assay [2] worked out at 1.62 nM.

As to `COc1cc(C(=O)N[C@H]2CC[C@@H](n3c(=O)c4cc(F)cnc4n(C4CCSCC4)c3=O)CC2)ccc1O` [Example 11, N-{cis-4-[6-fluoro-2,4-dioxo-1-(tetrahydro-2H-thiopyran-4-yl)-1,4-dihydropyrido[2,3-d]pyrimidin-3(2H)-yl]cyclohexyl}-4-hydroxy-3-methoxybenzamide], in assay [2], the IC50 is 1.61 nM.

As to `O=C(N[C@H]1CC[C@@H](n2c(=O)c3cc(F)cnc3n(C3CCSCC3)c2=O)CC1)[C@H](O)C1CCCCC1` [Example 12, (2R)-2-cyclohexyl-N-{cis-4-[6-fluoro-2,4-dioxo-1-(tetrahydro-2H-thiopyran-4-yl)-1,4-dihydropyrido[2,3-d]pyrimidin-3(2H)-yl]cyclohexyl}-2-hydroxyacetamide], the IC50 in assay [2] was 0.887 nM.

As to `O=C(N[C@H]1CC[C@@H](n2c(=O)c3cc(F)cnc3n(C3CCSC3)c2=O)CC1)C1CC1` (relative stereo) [Example 27, N-{cis-4-[6-fluoro-2,4-dioxo-1-(tetrahydro-3-thienyl)-1,4-dihydropyrido[2,3-d]pyrimidin-3(2H)-yl]cyclohexyl}cyclopropanecarboxamide], in assay [2], the IC50 amounted to 10.7 nM.

For the compound `CN(C)c1ccc(C(=O)NC2CCC(n3c(=O)c4cc(F)cnc4n(C4CCSCC4)c3=O)CC2)cc1` (stereo not shown) [Example 67, 4-dimethylamino-N-[4-(9-fluoro-2,4-dioxo-5-tetrahydrothiopyran-4-yl-3,5,7-triazabicyclo[4.4.0]deca-6,8,10-trien-3-yl)cyclohexyl]benzamide], the IC50 in assay [1] was 0.501 nM.

Regarding `O=C(CCc1cccc(O)c1)N[C@H]1CC[C@@H](n2c(=O)c3cc(F)cnc3n(C3CCSCC3)c2=O)CC1` [Example 19, N-{cis-4-[6-fluoro-2,4-dioxo-1-(tetrahydro-2H-thiopyran-4-yl)-1,4-dihydropyrido[2,3-d]pyrimidin-3(2H)-yl]cyclohexyl}-3-(3-hydroxyphenyl)propanamide], the IC50 in assay [2] turned out to be 2.53 nM.
